Data: patent US7759101B2, “Ginsenoside glycosidases hydrolyzing ginsenoside sugar moieties and uses thereof” (priority 2000, dated 2010)
Values belong to the compound of their own block, whether it stands above or below them.

Legend:
[1] = system: ginsenoside glycosidases from wheat bran; test: Hydrolysis of ginsenosides with ginsenoside glycosidases from wheat bran; format: biochemical; details: enzymes from wheat bran
Procedure: 500 g of wheat bran was added to 2500 ml of 0.02 M acetate buffer pH 5 and extracted at 40° C. for 2 hours. 2000 ml of supernatant were obtained by filtration to which (NH4)2SO4 was added gradually with stirring until 70% saturation. The mixture stand at 4° C. overnight. Protein pellets were collected by centrifugation and redissolved in 80 ml of distilled water and dialyzed against 0.02 M acetate buffer pH 5.0. Insolubles were removed by centrifugation and the supernatant was adjusted to a volume of 200 ml to obtain the crude enzyme solution.
10 ml of the enzyme solution was allowed to react with 10 ml of 1% ginsenoside substrate at 40° C. for 20 hours.

[2] = system: ginsenoside glycosidases from A. niger; test: Hydrolysis of ginsenosides with crude ginsenoside glycosidases from A. niger, products measured by TLC; format: biochemical, Aspergillus niger; details: for effect of metal ions on the enzyme reaction: hydrolysis of Rb1, pH 5.0, 30°C.
Procedure: Aspergillus niger FFCCDL-48 g was cultured in a medium containing 1% ginseng extracts and 3% wheat bran extracts at 30° C. for 54 hours. Cells were removed by centrifugation, after which (NH4)2SO4 powder was added to 2000 ml of the cell-free supernatant with stirring to 65% saturation. The solution was stored overnight at 4° C. and precipitated proteins were collected by centrifugation, resuspended in 80 ml of distilled water and dialyzed against 0.01M acetate buffer pH 5. Insolubles were removed by centrifugation, and the solution was adjusted to 200 ml with 0.01 M acetate buffer pH 5. The crude enzyme solution may be used to hydrolyze ginsenosides or to purify the enzymes.
100 mg each of ginsenosides Rb1, Rb2, Rc and Rd and 10 mg of ginsenoside Rg3 were dissolved in separate tubes containing 10 ml of 0.01M acetate buffer pH 5. 10 ml of the crude enzyme solution obtained in 1.1 was added to each tube and allowed to react at 30° C. for 18 hours. Then 10 ml of n-butanol was added to stop the reactions. The products were measured by thin layer chromatography (TLC) (Silica gel 60-F254, Merck; chloroform:methanol:water 70:30:5).
Experiments were carried out to explore the effects of temperature, pH, metal ions and reaction time on the enzyme reaction, in order to further characterize the enzymes.
100 mg of ginsenoside Rb1 was used in a reaction under the conditions as described in 1.2 and the effect of temperature was shown in Table 2.

[3] = system: ginsenoside glycosidase I; test: Hydrolysis of ginsenosides with Fraction 36 (ginsenoside glycosidase I); format: biochemical, Aspergillus niger; details: Fraction 36; substrates Rb1, Rb2, Rc, Rd 0.5%; Rg3, F2, Rh2, C—K, Rg2 0.05%; pH 5.0, 30° C.
Procedure: 10 ml of the enzyme solution obtained in 1.1 was subjected to a DEAE-Cellulose DE-52 column (Pharamcia, 1.5×6.7 cm) to absorb the enzyme protein. The column was then eluted with a NaCl gradient (0.06, 0.12, 0.18, 0.24, 0.3, 0.4, 0.5 and 0.6M).
Fractions 36 and 54 from the DEAE-Cellulose column appeared as one dot on a SDS-polyacrylamide gel, representing the purified enzymes.
Fraction 36 which was eluted with 0.12 M NaCl from the DEAE-Cellulose column was lyophilized and appeared as a single dot with a molecular weight of 51,000 Daltons when running on a SDS-polyacrylamide gel.
To observe the differences between the ginsenoside glycosidases of the invention and known exo-cellulases, the ginsenoside glycosidases of the invention were compared with cellulose β-glucosidase (E.C. 3.2.1.21) in two reactions with 0.5% ginsenosides Rb1 or Rd as substrate.

[4] = system: ginsenoside glycosidases from A. oryzae; test: Hydrolysis of ginsenosides with crude ginsenoside glycosidases from A. oryzae, TLC; format: biochemical, Aspergillus oryzae; details: pH 5.0, 30° C., 18 hours
Procedure: Aspergillus oryzae FFCCDL-39 g (available from Food Fermentation Culture Collection of Dalian Institute of Light Industry) was cultured with stirring in a medium containing 1% ginseng extracts and 3% wheat bran extracts at 30° C. for 64 hours. Cells were removed by centrifugation, after which (NH4)2SO4 powder was added to 2000 ml of the cell-free supernatant with stirring to 65% saturation. The solution was stored overnight at 4° C. and precipitated proteins were collected by centrifugation, resuspended in 80 ml of distilled water and dialyzed against 0.01M acetate buffer pH 5. Insolubles were removed by centrifugation, and the solution was adjusted to 200 ml with 0.01 M acetate buffer pH 5. The crude enzyme solution may be used to hydrolyze ginsenosides or to purify the enzymes.
Each 100 mg of ginsenosides Rb1, Rb2, Rc Re and Rd and each 10 mg of ginsenoside Rg3 and Rg2 were dissolved in separate tubes containing 10 ml of 0.01M acetate buffer pH 5. 10 ml of the crude enzyme solution obtained as above was added to each tube and allowed to react at 30° C. for 18 hours. Then 10 ml of n-butanol was added to stop the reactions. The products were measured by thin layer chromatography (TLC) (Silica gel 60-F254, Merck; chloroform:methanol:water 70:30:5). […]

[5] = system: ginsenoside glycosidase III from ginseng plant; test: Hydrolysis of Rd with fraction 37 (ginsenoside glycosidase III) from ginseng plant; format: biochemical; details: ginsenoside glycosidase III from ginseng plant
Procedure: (§1) 200 g of fresh ginseng root was cut into pieces and added to 600 ml of 0.02 M acetate buffer pH 5. Supernatant was obtained by filtration after the mixture stand at 40° C. for 2 hours. To the supernatant (NH4)2SO4 was added gradually until 70% saturation and the mixture stand overnight at 4° C. Then protein pellets were collected by centrifugation and redissolved in 15 ml of distilled water. The solution was dialyzed against 0.02 M Tris-HCl pH 7.4. Insolubles were removed by centrifugation and the volume of the supernatant was adjusted to 20 ml.
(§2) 5 ml of the enzyme solution was subjected to a DEAE-Cellulose DE-25 column (Whatman, 1.4×6.7 cm). The column was eluted with a KCl gradient (0.06, 0.12, 0.18 and 0.24 M) in 0.02 M Tris-HCl pH 7.4. After elution, each fraction was tested for the activity of hydrolyzing ginsenosides. […] Fraction 52 can also hydrolyze the glucosidic bond at the twentieth carbon atom of Rb and Rc to give ginsenoside F2.

[6] = system: ginsenoside glycosidase I from ginseng plants; test: Hydrolysis of ginsenosides with fraction 52 (ginsenoside glycosidase I) from ginseng plant; format: biochemical; details: ginsenoside glycosidase I from ginseng plant
Procedure: as §1, §2

effect of metal ion on the enzyme activity [1]: enhance the enzyme activity
Structure (SMILES): [Fe+2] [Fe^++]

effect of metal ion on the enzyme activity [1]: enhance the enzyme activity
effect of metal ions on the enzyme reaction [2]: slightly accelerate the conversion rate
Structure (SMILES): [Mg+2] [Mg^++]

Structure (SMILES): CC(C)=CCC[C@](C)(O)[C@H]1CC[C@]2(C)[C@@H]1[C@H](O)C[C@@H]1[C@@]3(C)CC[C@H](O[C@@H]4O[C@H](CO)[C@@H](O)[C@H](O)[C@H]4O[C@@H]4O[C@H](CO)[C@@H](O)[C@H](O)[C@H]4O)C(C)(C)[C@@H]3CC[C@]12C [Rg3, ginsenoside Rg3]
Percentage of Rg3 in the reaction product [3]: 40%
Percentage of Rh2 in the reaction product [3]: 57%
Percentage of aglycone in the reaction product [3]: 3%
Percentage of Rg3 in the reaction product [4]: 45%
Percentage of Rh2 in the reaction product [4]: 50%
Percentage of aglycone in the reaction product [4]: 5%
Percentage of Rg3 in the reaction product ([2]; pH 5, 30° C., 18 hours): 30%
Percentage of Rh2 in the reaction product ([2]; pH 5, 30° C., 18 hours): 53%
Percentage of aglycone in the reaction product ([2]; pH 5, 30° C., 18 hours): 17%
conversion rate from Rg3 to Rh2 ([2]; pH 5, 30° C., 18 hours): over 50%

Structure (SMILES): CC(C)=CCC[C@](C)(O[C@@H]1O[C@H](CO)[C@@H](O)[C@H](O)[C@H]1O)[C@H]1CC[C@]2(C)[C@@H]1[C@H](O)C[C@@H]1[C@@]3(C)CC[C@H](O)C(C)(C)[C@@H]3CC[C@]12C [C—K, ginsenoside C-K]
Percentage of C—K in the reaction product [3]: 97%
Percentage of aglycone in the reaction product [3]: 3%

Structure (SMILES): CC(C)=CCC[C@](C)(O[C@@H]1O[C@H](CO)[C@@H](O)[C@H](O)[C@H]1O)[C@H]1CC[C@]2(C)[C@@H]1[C@H](O)C[C@@H]1[C@@]3(C)CC[C@H](O)C(C)(C)[C@@H]3[C@@H](O[C@@H]3O[C@H](CO)[C@@H](O)[C@H](O)[C@H]3O[C@@H]3O[C@@H](C)[C@H](O)[C@@H](O)[C@H]3O)C[C@]12C [Re, ginsenoside Re]
Percentage of Re in the reaction product [4]: 20%
Percentage of Rg1 in the reaction product [4]: 73%
Percentage of Rh1 in the reaction product [4]: 2%
Percentage of aglycone in the reaction product [4]: 5%

effect of metal ion on the enzyme [5]: inhibitory effect
effect of metal ion on the enzyme [6]: inhibitory effect
effect of metal ion on the enzyme activity [1]: inhibitory effect
effect of metal ions on the enzyme reaction [2]: inhibit the reaction
Structure (SMILES): [Cu+2] [Cu^++]

Structure (SMILES): CC(C)=CCC[C@](C)(O)[C@H]1CC[C@]2(C)[C@@H]1[C@H](O)C[C@@H]1[C@@]3(C)CC[C@H](O)C(C)(C)[C@@H]3[C@@H](O[C@@H]3O[C@H](CO)[C@@H](O)[C@H](O)[C@H]3O[C@@H]3O[C@@H](C)[C@H](O)[C@@H](O)[C@H]3O)C[C@]12C [Rg2, ginsenoside Rg2]
Percentage of Rg2 in the reaction product [3]: 100%
Percentage of Rg2 in the reaction product [4]: 32%
Percentage of Rh1 in the reaction product [4]: 75%
Percentage of aglycone in the reaction product [4]: 3%
